Measured values from the NIST ThermoML archive (doi:10.1016/j.jct.2019.01.006).
± gives the expanded uncertainty stated by the source.

Conditions: for vapor or sublimation pressure: Transpiration method; for mass density: 101.33 kPa, Liquid, Vibrating tube method

vapor or sublimation pressure (419.15 K, Crystal) | vapor or sublimation pressure (421.15 K, Crystal) | vapor or sublimation pressure (423.15 K, Crystal) | vapor or sublimation pressure (425.15 K, Crystal) | vapor or sublimation pressure (427.15 K, Crystal) | vapor or sublimation pressure (429.15 K, Crystal) | vapor or sublimation pressure (431.15 K, Crystal) | vapor or sublimation pressure (433.15 K, Crystal) | vapor or sublimation pressure (435.15 K, Crystal) | vapor or sublimation pressure (437.15 K, Crystal) | vapor or sublimation pressure (439.15 K, Crystal) | vapor or sublimation pressure (441.15 K, Crystal) | vapor or sublimation pressure (443.15 K, Crystal) | Normal melting temperature (Crystal, DTA) | mass density (293.15 K) | mass density (298.15 K) | mass density (303.15 K) | mass density (308.15 K) | mass density (313.15 K) | SMILES
0.000753 ± 0.00012 kPa | 0.000867 ± 0.00013 kPa | 0.000966 ± 0.00013 kPa | 0.001118 ± 0.00013 kPa | 0.001294 ± 0.00013 kPa | 0.001475 ± 0.00013 kPa | 0.001694 ± 0.00014 kPa | 0.001933 ± 0.00014 kPa | 0.002207 ± 0.00015 kPa | 0.002483 ± 0.00016 kPa | 0.002882 ± 0.00017 kPa | 0.003179 ± 0.00018 kPa | 0.003735 ± 0.0002 kPa | 232.60 ± 0.5 °C |  |  |  |  |  | Cc1c(Cl)cccc1Nc1ncccc1C(=O)O [2-(2-methyl-3-chloroanilino)nicotinic acid]
 |  |  |  |  |  |  |  |  |  |  |  |  |  | 659.4 ± 4.1 kg/m3 | 654.8 ± 4.1 kg/m3 | 650.2 ± 4.1 kg/m3 | 645.4 ± 4.1 kg/m3 | 640.7 ± 4.1 kg/m3 | CCCCCC [hexane]
 |  |  |  |  |  |  |  |  |  |  |  |  |  | 825.1 ± 4 kg/m3 | 821.7 ± 4 kg/m3 | 818.3 ± 4 kg/m3 | 814.8 ± 4 kg/m3 | 811.4 ± 4 kg/m3 | CCCCCCCCO [octan-1-ol]
